Measured values as given in ChEMBL document CHEMBL5241067, “An insight in anti-malarial potential of indole scaffold: A review” (Eur J Med Chem, 2021).
Converted amounts (≈) assume the structure as drawn.

Columns and labels:
Plasmodium falciparum [1] = assay: Antiplasmodial activity against Plasmodium falciparum NF54 assessed as growth inhibition; format: functional, organism-based
Plasmodium falciparum [2] = assay: Antiplasmodial activity against Plasmodium falciparum DD2 assessed as growth inhibition; format: functional, organism-based
Plasmodium berghei = assay: In vivo antimalarial activity against Plasmodium berghei infected in mouse assessed as supression of parasitemia at 20 to 25 mg/kg, po measured for 4 days; format: functional; conditions: dose 20-25 mg/kg, time 4 day
Plasmodium falciparum [3] = assay: Antiplasmodial activity against multidrug resistant Plasmodium falciparum K1 assessed as growth inhibition; format: functional, organism-based
[4] = Cytotoxicity against HEK293 cells; format: toxicity, cell-based; conditions: human
Plasmodium falciparum [5] = assay: Antimalarial activity against chloroquine-resistant Plasmodium falciparum W2 assessed as growth inhibition; format: functional, organism-based
Plasmodium falciparum [6] = assay: Antimalarial activity against […] Plasmodium falciparum D6 assessed as growth inhibition; format: functional, organism-based
KB = assay: Cytotoxicity against human KB cells; format: functional; conditions: read-out: ED50 (the source's name)
Plasmodium falciparum [7] = assay: Antiplasmodial activity against Plasmodium falciparum; format: functional, organism-based
Plasmodium falciparum [8] = assay: Antiplasmodial activity against multidrug-resistant Plasmodium falciparum assessed as growth inhibition; format: functional
Plasmodium falciparum [9] = assay: Antiplasmodial activity against chloroquine-resistant Plasmodium falciparum DD2 assessed as growth inhibition; format: functional, organism-based
Plasmodium falciparum [10] = assay: Antiplasmodial activity against chloroquine, pyrimethamine and mefloquine-resistant Plasmodium falciparum assessed as growth inhibition; format: functional, organism-based

O=C1c2cc(F)ccc2-n2c1nc1ccccc1c2=O
IC50 (Plasmodium falciparum [1]): 0.057 µM
IC50 (Plasmodium falciparum [2]): 0.1 µM

Cn1c2c3cc(Br)ccc3nc-2cc2cc(Br)ccc21
Activity (Plasmodium berghei): 89%
IC50 (Plasmodium falciparum [3]): 0.05 µM

CC1(C)[C@H](Cc2[nH]c3ccccc3c2CC[N+](C)(C)O)O[C@]23OC[C@H](O)[C@H]2OC(=O)[C@]13O
IC50 [4]: 0.08 µM

N#Cc1c(-c2ccc(F)c(F)c2)cc(-c2ccc(Br)cc2)nc1-c1c[nH]c2ccccc12
IC50 (Plasmodium falciparum [5]): 4.77 µM
IC50 (Plasmodium falciparum [6]): 6.6 µM

O=C1c2cc(Br)ccc2-n2c1nc1ccc(Cl)cc1c2=O
IC50 (Plasmodium falciparum [1]): 0.036 µM
IC50 (Plasmodium falciparum [2]): 0.123 µM

Cc1cc(-c2cc(-c3ccccc3)nc(-c3c[nH]c4ccccc34)c2C#N)cc(C)c1C
IC50 (Plasmodium falciparum [5]): 2.7 µM
IC50 (Plasmodium falciparum [6]): 1.6 µM

N#Cc1c(-c2ccc(F)cc2)cc(-c2ccccc2)nc1-c1c[nH]c2ccccc12
IC50 (Plasmodium falciparum [5]): 2.99 µM
IC50 (Plasmodium falciparum [6]): 1.47 µM

O=C1NCCc2c[nH]c3ccc4c(c23)[C@@H]1[C@H](c1ccc2c(c1)OCO2)O4
EC50 (KB): 23.9 µM
IC50 (Plasmodium falciparum [7]): 3.4 µM

O=C1c2cc(Br)ccc2-n2c1nc1cc(Cl)ccc1c2=O
IC50 (Plasmodium falciparum [1]): 0.036 µM
IC50 (Plasmodium falciparum [2]): 0.238 µM

N#Cc1c(-c2ccc(F)c(F)c2)cc(-c2ccc(F)cc2)nc1-c1c[nH]c2ccccc12
IC50 (Plasmodium falciparum [5]): 3.82 µM
IC50 (Plasmodium falciparum [6]): 6.78 µM

N#Cc1c(-c2ccc(F)c(F)c2)cc(-c2ccccc2)nc1-c1c[nH]c2ccccc12
IC50 (Plasmodium falciparum [5]): 1.16 µM
IC50 (Plasmodium falciparum [6]): 1.56 µM

O=C1c2cc([N+](=O)[O-])ccc2-n2c1nc1cc(Cl)ccc1c2=O
IC50 (Plasmodium falciparum [1]): 0.033 µM
IC50 (Plasmodium falciparum [2]): 0.031 µM

Cc1cc(-c2cc(-c3ccc(F)cc3)nc(-c3c[nH]c4ccccc34)c2C#N)cc(C)c1C
IC50 (Plasmodium falciparum [5]): 2.96 µM
IC50 (Plasmodium falciparum [6]): 5.4 µM

O=C1c2ccccc2-n2c1nc1ccccc1c2=O [TRYPTANTHRIN]
IC50 (Plasmodium falciparum [1]): 0.288 µM
Activity (Plasmodium falciparum [8]): 100 ng/mL
IC50 (Plasmodium falciparum [9]): 0.114 µM
IC50 (Plasmodium falciparum [10]): 0.069 µg/mL (≈ 0.278 µM)
